Reference: patent US4835157A, “Thieno- and furopyrimidine-2,4-dione piperidine derivatives as serotonin antagonists and alpha adrenergic blocking agents” (Ortho Pharmaceutical Corporation, priority 1988, dated 1989)

Legend:
serotonin receptors = assay: Inhibition of 5-HTP-Induced Head Twitching; assay type: in vivo; settings: male CD1 mice
Experimental: Inhibition of 5-HTP-Induced Head Twitching
This test detects compounds with antagonistic activity of serotonin receptors in vivo, and is a modified procedure of Corne, Pickering and Warner, Brit. J. Pharmacol. 20, 106 (1963). Groups of male CD1 mice were fasted overnight but allowed water ad libitum. They were deprived of water during the course of the experiment. The mice were weighed and treated orally or parenterally with the test compound in a dose volume of 10 ml/kg. Doses of test substance were calculated based upon the active compound. Substances for oral administration were dissolved or suspended in a 0.5% aqueous methylcellulose (15 centipoises) vehicle containing 4 ml of Tween 80/l.
A dose of 160 mg/kg of L-5-hydroxytryptophan (5-HTP) was administered i.v. in a dose volume of 5 ml/kg after one hour. The test mouse was restrained in a rodent restrainer that allowed the tail to extend out the back. The tail was then placed in tepid (but not scalding) water for approximately 10 seconds to soften the skin and dilate the tail vein. A 1 ml syringe and 25 gauge (5/8 inch) needle was used to administer the 5-HTP solution into one of the lateral tail veins.
A timer was started after dosing with 5-HTP to the first animal of the test group. […] A head twitch involves the head, neck and ears and has the appearance of an exaggerated pinal reflex. The number of head twitches for each individual vehicle-treated mouse were recorded to establish a historical baseline.
The active compounds in the test block the twitch response (the response rated all or none).

[1] = test system: Serotonin-Induced Smooth Muscle Contractions (rabbit thoracic aorta); assay: Inhibition of Serotonin-Induced Smooth Muscle Contractions (isolated thoracic aorta strips); assay type: cell-based; settings: Oryctolagus cuniculus, 10 min, concentration shifting the serotonin dose curve 10x to the right, 10 min preincubation, read-out: 5-HT-Induced Smooth Muscle Contraction DR10
Experimental: Inhibition of Serotonin-Induced Smooth Muscle Contractions
The test objects of this Example were canines and rabbits. Rabbits were sacrificed by T-61 injection and the thoracic aorta was removed immediately. The aorta was placed in warmed, oxygenated Krebs-Henseleit buffer. After the tissue was cleaned, a 2-3 mm wide strip was cut helically from each aorta. A strip of approximately 5 cm was suspended in Krebs-Henseleit buffer at 37° C. in a 25 ml tissue bath and the tissues equilibrated at an initial resting tension of 4 g for 90-120 minutes. An initial serotonin dose curve, 0.01-10 μM was then done on each tissue, followed by a 60 minute washout and reequilibration. The test drug was then added for a 10 minute preincubation and another serotonin dose curve was done using 0.01-100 μM.
Results are expressed as DR10 values. This is the concentration of the compound required to shift the serotonin dose curve 10x to the right, i.e., the concentration of antagonist at which the concentration of serotonin required for 50% maximal contraction is increased ten-fold.

[2] = test system: serotonin-induced platelet aggregation; assay: Platelet Aggregation Assay (serotonin-induced); assay type: cell-based; settings: Platelet; human plasma, serotonin 5 μM
Experimental: Platelet Aggegation Assay
Human blood was collected into tubes containing sodium citrate. The plasma was separated by centrifugation and was used as the source of platelets. Serotonin (5 μM) was used as the agonist to induce platelet aggregation. A control aggregation curve (as measured by the decrease in absorbance in transmitted light) was obtained in the presence of serotonin and in the absence of test compound. The test compound was added to an identical sample in a cuvette for one minute before addition of serotonin to yield the experimental curve.

5HT2 [3] = molecular target: T1, 5HT2 (Rattus norvegicus, UniProt P14842); assay: 5HT2 Blockade in vivo (antagonism of 5HT induced pressor responses); design: Spontaneously hypertensive rats were anesthetized with sodium pentobarbital; from tissue; host or cells: whole animal: anesthetized spontaneously hypertensive rats (vasculature); species or system spontaneously hypertensive rats; settings: rat, iv, read-out: 5-HT-Induced Pressor Response ED50
T1 sequence (P14842 whole entry): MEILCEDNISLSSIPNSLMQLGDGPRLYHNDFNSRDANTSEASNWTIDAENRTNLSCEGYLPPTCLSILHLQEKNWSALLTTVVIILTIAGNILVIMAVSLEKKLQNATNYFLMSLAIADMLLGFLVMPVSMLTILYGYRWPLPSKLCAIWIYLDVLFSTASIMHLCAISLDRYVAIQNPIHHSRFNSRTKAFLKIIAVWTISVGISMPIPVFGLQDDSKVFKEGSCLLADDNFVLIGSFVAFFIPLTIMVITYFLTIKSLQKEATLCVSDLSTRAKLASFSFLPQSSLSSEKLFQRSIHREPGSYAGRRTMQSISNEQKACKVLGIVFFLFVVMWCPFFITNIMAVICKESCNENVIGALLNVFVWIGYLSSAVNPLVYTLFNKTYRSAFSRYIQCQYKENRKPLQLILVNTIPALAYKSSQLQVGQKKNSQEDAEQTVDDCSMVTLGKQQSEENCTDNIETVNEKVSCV
Experimental: Antagonism of 5HT induced pressor responses was used to assess 5HT2 blockade in vivo. Spontaneously hypertensive rats were anesthetized with sodium pentobarbital (50 mg/kg, i.p.). The right carotid artery and vein were cannulated for pressure recording and drug injection, respectively. The trachea was cannulated, the rat placed on a respirator and ventilated with room air at 50-60 breaths/minute. Rats were pretreated with prazosin hydrochloride (1 mg/kg, i.v., blous) and pentolinium tartrate (5 mg/kg, i.v., bolus). After 10 minutes equilibration, the rat was challenged with 5HT (100 μg/kg) which elevates mean arterial pressure (MAP) 60-100 mmHg; non-responsive rats were discarded.
After a baseline had been reestablished, bolus injections of 5HT (100 μg/kg, i.v.) were given and the MAP responses were evaluated both pre- and post-drug administration. 5HT challenges were repeated 10 minutes after each dose of antagonist. Up to three cumulative doses of the antagonist were given to a single animal.

5HT1A receptor = molecular target: T2, 5HT1A receptor (Rattus norvegicus, UniProt P19327); assay: Brain Serotonin (5HT1A) radioreceptor Assay (3H-8-OH DPAT displacement, rat frontal cortex membranes); assay type: binding; settings: 3H-8-OH DPAT
T2 construct: Membrane fragments were prepared from prefrontal cortex; from tissue; host or cells: prefrontal/frontal cortex of female rats (about 150 g), membrane fragments
T2 sequence (P19327 1-422): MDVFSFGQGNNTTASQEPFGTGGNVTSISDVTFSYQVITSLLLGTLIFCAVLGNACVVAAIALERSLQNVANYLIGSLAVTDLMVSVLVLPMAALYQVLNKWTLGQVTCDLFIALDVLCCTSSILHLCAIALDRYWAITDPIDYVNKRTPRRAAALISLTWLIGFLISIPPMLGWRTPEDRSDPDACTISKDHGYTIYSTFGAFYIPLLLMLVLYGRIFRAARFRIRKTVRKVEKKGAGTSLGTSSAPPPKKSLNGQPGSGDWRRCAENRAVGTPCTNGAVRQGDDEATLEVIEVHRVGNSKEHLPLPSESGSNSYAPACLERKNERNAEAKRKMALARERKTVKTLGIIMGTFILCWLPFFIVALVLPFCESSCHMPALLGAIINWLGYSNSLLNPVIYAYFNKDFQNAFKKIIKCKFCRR
Experimental: Brain Serotonin (5HT1A) radioreceptor Assay
The text objects of this procedure were rat frontal cortex membranes. Membrane fragments were prepared from prefrontal cortex disected from brains obtained from female rats (≈150 g). The 5HT1A sites were labeled with ^3 H-8-OH dipropylaminotetralin (8-OH-DPAT). Membrane fragments, ^3 H-8-OH DPAT, TRIS buffer (pH 7.4) and unlabeled compound were incubated for 10 minutes at 37° C. and then for 10 minutes at 4° C. Separation of bound from unbound ^3 H-8-OH DPAT was performed by vacuum filtration on a glass fiber disc. The ability of a compound to compete with ^3 H-8-OH DPAT for binding sites is a measure of the affinity of the compound for the 5HT1A receptor. Specific binding was determined by the difference between total counts bound and the counts bound in the presence of […] 5-hydroxytryptamine.

[4] = test system: alpha1 adrenergic receptor; assay: Alpha1 Blockade in vivo (inhibition of phenylephrine pressor response); design: species or system spontaneously hypertensive rats (SHR); settings: anesthetized, vagotomized SHR; i.v.
Experimental: The potency of these compounds as alpha1 adrenergic antagonists was determined using the following procedure: adult male spontaneously hypertensive rats (SHR) were anesthetized and bilaterally vagotomized. A carotid artery and jugular vein were cannulated for monitoring mean arterial blood pressure and drug administration, respectively. The percent inhibition of alpha1 adrenergic receptor activation was quantified by measuring pressor responses to phenylephrine before and after antagonist treatment. […] Compounds were tested to the limits of their solubility for intravenous administration.

5HT2 [5] = molecular target: T1, 5HT2; assay: Brain Serotonin (5-HT2) Radioreceptor Assay (3H-ketanserin displacement, rat frontal cortex membranes); assay type: binding; design: dissected from brains obtained from female rats; from tissue; host or cells: frontal cortex of female rats (about 150 g), membrane fragments; settings: 15 min at 37° C
Experimental: Brain Serotonin (5-HT2) Radioreceptor Assay
The test objects of this Example were rat frontal cortex membranes. Mebrane fragments were prepared from the frontal cortex dissected from brains obtained from female rats (≈150 g). […] Compound bound to the receptor site was separated from the remaining unbound compound by vacuum filtration. […] Specific binding was determined by the difference between total counts bound and counts bound in the presence of 10^-6 M methysergide.

[6] = test system: Spontaneously Hypertensive Rats (SHR); assay: Antihypertensive Activity in Spontaneously Hypertensive Rats (SHR); assay type: in vivo, rat; settings: @ 5 mg/kg p.o., 4 h monitoring
Experimental: Antihypertensive Activity in Spontaneously Hypertensive Rats (SHR)
Antihypertensive activity was assessed using the following procedure. Adult male SHR were surgically prepared with arterial cannuli under light ether anesthesia and given 60-90 minute post-surgical recovery. Mean arterial pressure (MAP) was continuously monitored via the arterial line. After baseline MAP was recorded, groups of 3-6 SHR received a single dose of drug or vehicle (0.5% methylcellulose) administered by gavage at doses of 1 to 5 mg/kg.MAP was monitored for four hours post-dosing.
Maximal changes in MAP were reported.

With `CC(=O)n1c(=O)n(CCN2CCC(C(=O)c3ccc(F)cc3)CC2)c(=O)c2ccsc21` [Example 3, 1-Acetyl-3-[2-[4-(4-fluorobenzoyl)piperidin-1-yl]ethyl]thieno[2,3-d]pyrimidine-2,4-dione] the “Inhibit. of 5-HTP-Head Twitch (result in words)” value (serotonin receptors; @ 10 (mg/kg, p.o.)) was “Inact”, the IC (10-fold shift) [1] was 0.0229 µM and the IC50 [2] was 8000 nM. The ED50 (5HT2 [3]) was 0.025 mg/kg, the inhibition at 1 µM (5HT1A receptor; @ 1 μM, read-out: Brain 5-HT1 Receptor % displaced (% inhibition)) was 13% and the “Phenylephrine-Induced Pressor Response ED50” value [4] was 10.0 mg/kg. The IC50 (5HT2 [5]) was 2.4 nM and the “Antihypertensive Activity, p.o., % AMAP (maximal change in mean arterial pressure)” value [6] was -4%.

`O=C(c1ccc(F)cc1)C1CCN(CCn2c(=O)[nH]c3ccsc3c2=O)CC1` [Example 1, 3-[2-[4-(4-Fluorobenzoyl)piperidin-1-yl]ethyl]thieno[3,2-d]pyrimidine-2,4-dione] was tested, and the “Inhibit. of 5-HTP-Head Twitch ED50” value (serotonin receptors; 5-HTP 160 mg/kg i.v. after one hour) was 2.1 mg/kg, p.o, the IC (10-fold shift) [1] was 0.0063 µM and the IC50 [2] was 34 nM. The ED50 (5HT2 [3]) was 0.009 mg/kg, the IC50 (5HT1A receptor; rat frontal cortex membranes, pH 7.4, read-out: Brain 5-HT1 Receptor IC50) was 16000 nM and the “Phenylephrine-Induced Pressor Response ED50” value [4] was over 10 mg/kg. The IC50 (5HT2 [5]) was 0.6 nM and the “Antihypertensive Activity, p.o., % AMAP (maximal change in mean arterial pressure)” value [6] was -10%.
